Assays:
IDO1 [1] = molecular target: T1, IDO1 (Homo sapiens (Human), UniProt P14902); test: IDO1 Cellular Assay in Hela Cells Stimulated with IFNγ; format: cell-based; settings: Hela cells stimulated with IFNγ 100 ng/mL; read-out: IDO1 HELA Cell Assay, IC50
IDO1 [2] = molecular target: T1, IDO1; test: IDO1 Cellular Assay in Frozen HEK293 Cells Transiently Transfected with Human IDO1; format: cell-based; settings: read-out: IDO1 HEK293 Cell Assay, IC50
IDO1 [3] = molecular target: T1, IDO1; test: IDO1 Enzyme Assay; settings: read-out: IDO1 Enzyme Assay, IC50; HIS-tagged recombinant IDO1, 40 nM
IDO1 [4] = molecular target: T1, IDO1; test: IDO1 Human Whole Blood Assay; format: cell-based; settings: LPS and IFNγ 100 ng/mL, kynurenine by LC/MS/MS
Procedure: IDO1 Human Whole Blood Assay
LPS and IFNγ was prepared in RPMI to a 10× of final conc. (1000 ng/mL), final concentration is 100 ng/mL.
Human whole blood was drawn in sodium heparin coated tubes from healthy internal donors. Two hundred fourty μL of blood was transferred to each of the wells of a v-bottom 96 well plate. Thirty μL of compound was transferred from intermediate dilution plate, and incubated for 15 min. […] from stimulants was then transferred to blood and mixed thoroughly. Plate was covered with breathable membrane and incubated at 37° C. for overnight (18 h).
On day 2 isotope labeled standard of kunurenine and tryptophan was made in water at 10× concentration and 30 μL was added to the blood at 3 μM final concentration. The assay plates were centrifuged at 300×G for 10 min with no brake to separate plasma from red blood cells. Sixty μL of plasma samples was removed without disturbing red blood cells. Plasma was diluted with RPMI in 1:1 ratio and proteins were precipitated out with two volume of Acetonitrile. The plates was centrifuged at 4000×G for 60 min. Twenty μL of supernatant was carefully transferred to a 384 well plate contain 40 μL of 0.1% formic acid in water and analysed by LC/MS/MS.
LC/MS/MS analyses were performed using Thermo Fisher's LX4-TSQ Quantum Ultra system. This system consists of four Agilent binary high-performance liquid chromatography (HPLC) pumps and a TSQ Quantum Ultra triple quadrupole MS/MS instrument. For each sample, 5 μL were injected onto an Atlantis T3 column column (2.1 mm×150 mm, 3 μm particle size) from Waters. The mobile phase gradient pumped at 0.8 mL/min was used to elute the analytes from the column at 25° C. The elution started at 0% B increasing linearly to 25% B at 6.5 min, holding at 25% for 1 min, re-equilibrating to 10 min. Mobile phase A consisted of 0.1% formic acid in water. Mobile phase B consisted of 0.1% of formic acid in acetonitrile. Data was acquired in positive mode using a HESI interface. The operational parameters for the TSQ Quantum Ultra instrument were a spray voltage of 4000 V, capillary temperature of 380° C., vaporizer temperature 400° C., shealth gas 60 arbitrary units, Aux gas 20 arbitrary units, tube lens 85 and collision gas 1.2 mTorr. SRM chromatograms of kynurenine (Q1: 209.2>Q3:94.0) and internal standard (Q1: 215.3>Q3:98.2) were collected for 90 sec. The peak area was integrated by Xcalibur Quan software. The ratios between the kynurenine generated in the reaction and 2D6-Kynurenine spiked-in internal standard were used to generate percentage inhibition and IC50 values. Compounds were titrated and IC50's were calculated by 4 parameter sigmoidal curve fitting formula.

[5] = HEK293 cells transiently transfected with human IDO1

T1 sequence (P14902 whole entry): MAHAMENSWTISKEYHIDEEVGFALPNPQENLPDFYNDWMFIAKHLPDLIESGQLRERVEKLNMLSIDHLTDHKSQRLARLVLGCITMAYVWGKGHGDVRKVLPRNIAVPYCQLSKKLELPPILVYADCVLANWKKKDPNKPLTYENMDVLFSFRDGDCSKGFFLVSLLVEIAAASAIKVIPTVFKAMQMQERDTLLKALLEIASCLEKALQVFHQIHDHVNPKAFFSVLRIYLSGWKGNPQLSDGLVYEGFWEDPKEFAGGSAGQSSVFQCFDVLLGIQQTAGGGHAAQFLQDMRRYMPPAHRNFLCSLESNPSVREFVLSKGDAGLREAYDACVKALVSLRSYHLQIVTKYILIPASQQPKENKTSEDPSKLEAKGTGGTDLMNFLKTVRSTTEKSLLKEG

Structure (SMILES)	IC50 (IDO1 [1]) [nM]	IC50 (IDO1 [2]; [5]) [nM]	IC50 (IDO1 [3]) [nM]	IC50 (IDO1 [4]) [nM]	IC50 (IDO1 [2]) [nM]
O=c1ccc(CSc2nonc2/C(=N/O)Nc2ccc(F)c(Br)c2)n[nH]1 [Example 35, N-(3-bromo-4-fluorophenyl)-N′-hydroxy-4-(((6-oxo-1,6-dihydropyridazin-3-yl)methyl)thio)-1,2,5-oxadiazole-3-carboximidamide]	64.6	77.7	34.9	923	
CC(=O)NCCSc1nonc1/C(=N/O)Nc1ccc(F)c(C#N)c1 [Example 37, N-(2-((4-(N-(3-cyano-4-fluorophenyl)-N′-hydroxycarbamimidoyl)-1,2,5-oxadiazol-3-yl)thio)ethyl)acetamide]	59.4	83.1	104	469	
N#Cc1cc(N/C(=N\O)c2nonc2SCCNC(=O)C2CC2)ccc1F [Example 40, N-(2-((4-(N-(3-cyano-4-fluorophenyl)-N′-hydroxycarbamimidoyl)-1,2,5-oxadiazol-3-yl)thio)ethyl)cyclopropanecarboxamide]	182	92.1	76.2	1670	
CNC(=O)CSc1nonc1/C(=N/O)Nc1ccc(F)c(Br)c1 [Example 41, 2-((4-(N-(3-bromo-4-fluorophenyl)-N′-hydroxycarbamimidoyl)-1,2,5-oxadiazol-3-yl)thio)-N-methylacetamide]	17.6	22.2	43.1	150	
COC(=O)CNP(=O)(CCSc1nonc1/C(=N/O)Nc1ccc(F)c(Br)c1)NCC(=O)OC [Example 44, Dimethyl 2,2′-(((2-((4-(N-(3-bromo-4-fluorophenyl)-N′-hydroxycarbamimidoyl)-1,2,5-oxadiazol-3-yl)thio)ethyl)phosphoryl)bis(azanediyl))(Z)-diacetate]	8.6	17.5	18.1	130	
CNC(=O)NCCSc1nonc1/C(=N/O)Nc1ccc(F)c(Br)c1 [Example 45, N-(3-bromo-4-fluorophenyl)-N′-hydroxy-4-((2-(3-methylureido)ethyl)thio)-1,2,5-oxadiazole-3-carboximidamide]	47.7		22.5	405	24.3
O=C1CC[C@@H](CSc2nonc2/C(=N/O)Nc2ccc(F)c(Br)c2)N1 [Example 84, N-(3-bromo-4-fluorophenvl)-N′-hydroxy-4-({[(2S)-5-oxopyrrolidin-2-yl]methyl}sulfanyl)-1,2,5-oxadiazole-3-carboximidamide]	27.2	33.1	37.5	184	
O=c1cccc(CSc2nonc2/C(=N/O)Nc2ccc(F)c(Br)c2)[nH]1 [Example 86, N-(3-bromo-4-fluorophenyl)-N′-hydroxy-4-{[(6-oxo-1,6-dihydropyridin-2-yl)methyl]sulfanyl}-1,2,5-oxadiazole-3-carboximidamide]	15.7	41.6	32.3	4120	
Cn1c(CSc2nonc2/C(=N/O)Nc2ccc(F)c(Br)c2)n[nH]c1=O [Example 98, N-(3-bromo-4-fluorophenyl)-N′-hydroxy-4-{[(4-methyl-5-oxo-4,5-dihydro-1H-1,2,4-triazol-3-yl)methyl]sulfanyl}-1,2,5-oxadiazole-3-carboximidamide]	57.1	83	37.8	635	
Cc1cc(CSc2nonc2/C(=N/O)Nc2ccc(F)c(Br)c2)[nH]c(=O)c1 [Example 102, N-(3-bromo-4-fluorophenyl)-N′-hydroxy-4-{[(4-methyl-6-oxo-1,6-dihydropyridin-2-yl)methyl]sulfanyl}-1,2,5-oxadiazole-3-carboximidamide]	81.8	44.4	72.4	> 10000	
COC(=O)CNP(=O)(CSc1nonc1/C(=N/O)Nc1ccc(F)c(Br)c1)NCC(=O)OC [Example 120, methyl 6-[({4-[N-(3-bromo-4-fluorophenyl)-N′-hydroxycarbamimidoyl]-1,2,5-oxadiazol-3-yl}sulfanyl)methyl]-3-oxo-2-oxa-5,7-diaza-6-phosphanonan-9-oate 6-oxide]	28.4	13.4	14	155	
N[C@H](CO)CSc1nonc1/C(=N/O)Nc1ccc(F)c(Br)c1 [Example 125, 4-{[(2R)-2-amino-3-hydroxypropyl]sulfanyl}-N-(3-bromo-4-fluorophenyl)-N′-hydroxy-1,2,5-oxadiazole-3-carboximidamide]	131	45	51.9	745	
N#Cc1cc(N/C(=N\O)c2nonc2SC[C@@H](O)CO)ccc1F [Example 140, N-(3-cyano-4-fluorophenyl)-4-{[(2S)-2,3-dihydroxypropyl]sulfanyl}-N′-hydroxy-1,2,5-oxadiazole-3-carboximidamide]	245	269	96.7	384	
O=C(CSc1nonc1/C(=N/O)Nc1ccc(F)c(Br)c1)NC(CO)CO [Example 145, 2-({4-[N-(3-bromo-4-fluorophenyl)-N′-hydroxycarbamimidoyl]-1,2,5-oxadiazol-3-yl}sulfanyl)-N-[2-hydroxy-1-(hydroxymethyl)ethyl]acetamide]	68	77.1	50.9	1270	
CN1C(=O)NC[C@H]1CSc1nonc1/C(=N/O)Nc1ccc(F)c(C#N)c1 [Example 146]	398	222	155	1400	
N#Cc1cc(N/C(=N\O)c2nonc2SC[C@H](O)CO)ccc1F [Example 147, N-(3-cyano-4-fluorophenyl)-4-{[(2R)-2,3-dihydroxypropyl]sulfanyl}-N′-hydroxy-1,2,5-oxadiazole-3-carboximidamide]	494	373	154	1210	
N#Cc1cc(N/C(=N\O)c2nonc2SC[C@H]2CCC(=O)N2)ccc1F [Example 148, N-(3-cyano-4-fluorophenyl)-N′-hydroxy-4-({[(2R)-5-oxopyrrolidin-2-yl]methyl}sulfanyl)-1,2,5-oxadiazole-3-carboximidamide]	303	209	172	1760	
N#Cc1cc(N/C(=N\O)c2nonc2SC[C@@H]2CCC(=O)N2)ccc1F [Example 149, N-(3-cyano-4-fluorophenyl)-N′-hydroxy-4-({[(2S)-5-oxopyrrolidin-2-yl]methyl}sulfanyl)-1,2,5-oxadiazole-3-carboximidamide]	285	120	110	1050	
OC[C@@H](O)CSc1nonc1/C(=N/O)Nc1ccc(F)c(C(F)F)c1 [Example 168, N-[3-(difluoromethyl)-4-fluorophenyl]-4-{[(2R)-2,3-dihydroxypropyl]sulfanyl}-N′-hydroxy-1,2,5-oxadiazole-3-carboximidamide]	111	55.1	69.1	475	
OC[C@@H](O)CSc1nonc1/C(=N/O)Nc1ccc(F)c(Cl)c1 [Example 169, N-(3-chloro-4-fluorophenyl)-4-{[(2R)-2,3-dihydroxypropyl]sulfanyl}-N′-hydroxy-1,2,5-oxadiazole-3-carboximidamide]	191	93.7	52.8	1290	

Source: US10538497B2, “Compounds as indoleamine 2,3-dioxygenase inhibitors” (Merck Sharp & Dohme Corp., priority 2015, dated 2020)
